According to patent EP1101492A1, “NOVEL REMEDIES FOR ALLERGIC DISEASES” (FUJI YAKUHIN KOGYO KABUSHIKI KAISHA, priority 1998, dated 2000):

Experiments:
Body weight gain in mice = settings: test compounds 60 mg/kg s.c., prednisolone 10 mg/kg i.p., once a day for 6 days (Days 0-5), average ± standard deviation
Method: Accordingly, for assessing the side-effect each of the following test compounds an action on body weight gains was examined.
Next the mice were measured for their body weight. Each body weight gain was calculated on Days 5, 7 and 10 post-administration based on the body weight just prior to administration.

[1] = Body weight gain in sensitized mice; type: in vivo; settings: test compound 50 µg/ear/dose, prednisolone 5 µg/ear/dose, in ethanol painted twice a day, Days 1, 4 and 7, vs solvent control (ethanol)
Method: Experimental atopic dermatitis model mice sensitized in the same manner as in Example 1 were examined for influence on body weight gains.
Each mouse was measured for its body weight not only immediately before the start in painting but also on Days 1, 4 and 7 after the start in painting. Each gain in body weight was calculated and considered to indicate an effect on body weight changes affected by said treatments.

[2] = test system: allergic inflammation models (air pouch models); experiment: Allergic inflammation model (air pouch model): leukocyte infiltration; type: in vivo, rats; settings: 10 mg/kg or 30 mg/kg, into the air pouch at the second challenge or systemically 30 minutes prior; exudate 8 hours after second challenge; dexamethasone 0.1 mg/kg as comparison
Method: Compound No. 130 was dissolved in physiological saline to make the final concentration 2.5 mg/mL (equal to 10 mg/kg) or 7.5 mg/mL (equal to 30 mg/kg) and administered into an air pouch of animals or intraperitoneally at a dose of 4 mL/kg. Dexamethasone was also dissolved in physiological saline to make the final concentration 25 µg/mL (equal to 0.1 mg/kg) and administered into an air pouch of animals at a dose of 4 mL/kg. Administration into such an air pouch was conducted simultaneously with the second challenge while the intraperitoneal administration was 30 minutes prior to the second challenge. Acetylated bovine serum albumin diazo-coupled with arsanilic acid (ABA-AcBSA) was prepared according to the Ouchi et al. and Tabachnick et al. methods as disclosed in Ouchi et al., "Seibutsu Yakukagaku Jikken Koza, Ensho To Allergy (Inflammation and Allergy) I-2", pp.194 to 206, Hirokawa Publishing Co., Japan and Tabachnick et al., The Journal of Biological Chemistry, 234: 1726- 1730, 1959, and mixed with a Freund's complete adjuvant (Difco) at an equal ratio. The mixture was treated using a connection-type glass syringe to form an emulsion which was used as a sensitizing solution. […] The retrieved exudates were measured by a dye-exclusion method using a haematocytometer and the number of exudated leukocytes were counted.

allergic peritonitis = experiment: Allergic peritonitis induced with ovalbumin (peritoneal exudate cells); type: in vivo, Balb/c mice; settings: ovalbumin challenge
Method: Twenty four hours after induction, mice were sacrificed under ether […] and each penitoneal cavity was lavaged twice or thrice with a washout medium (total volume: 5 mL, physiological saline containing 10 units/mL of heparin). Peritoneal exudate cells (PEC) were harvested in a siliconized glass tube. The retrieved washout medium was measured for its yield (mL) and the number of exudate cells therein by using Turk solution and counting on a haemocytometer and a total number of PEC was calculated. An aliquot thereof (an extent of approximately 20,000 cells of PEC) was taken. Specimens for staining were prepared using Cytospin 3 (CHANDON), and PEC was stained with Dif-Quick solution (International Reagents Corporation). After staining, PEC was subjected to fractional counts under a microscope with classification into eosinophils, neutrophils, lymphocytes/macrophages and basophils based on their form and stain nature (more than 500 PEC per specimen were randomly counted). […] After counting, intraperitoneal exudation inhibition rates were calculated by the following formula and expressed as the therapeutic efficacies: Inhibition Rate (%) =[1 -((PEC in Sensitized/Drug-Treated Mouse) - (PEC in Unsensitized/Saline-Treated Mouse))/((PEC in Sensitized/Saline-Treated Mouse) - (PEC in Unsensitized/Saline-Treated Mouse))]× 100 [formula]
A physiological saline solution containing ovalbumin (0.25 mg/mL) and an aluminum hydroxide gel (4 mg/mL) was administered subcutaneously to male Balb/c mice (7 weeks old, 20 to 23 g, purchased from JAPAN SLC, Inc.) twice at one week interval at a single dose of 0.4 mL for sensitization. On Day 14 after the initial sensitization, an antigen solution for induction (2.5 µg/mL) was administered intraperitoneally to each animal at a dose of 0.4 mL to raise allergic peritonitis. Compound No. 130 (30 mg/kg) or a negative control solvent, physiological saline (10 mL/kg), was administered intraperitoneally to each animal 5 minutes prior to induction, 3 and 6 hours post-induction.
Similarly to Example 24, the peritoneal cavities were lavaged to retrieve PEC. The drained liquids were measured for their yield and total PEC number therein. In the same manner as in Example 24, PEC was stained and subjected to fractional counting under a microscope based on their form. […] Similarly to Example 24, basophils and neutrophils were excluded from subjects to be examined. In the same manner as in Example 24, intraperitoneal exudation inhibition rates were calculated and expressed as the therapeutic efficacies.
In the same manner as in Example 25, male Balb/c mice were sensitized with ovalbumin and an aluminum hydroxide gel, and, on Day 14 after the initial sensitization, treated with an antigen solution to raise allergic peritonitis. Compound No. […]
Similarly to Example 24, the peritoneal cavities were lavaged to retrieve PEC 24 hours after induction. The drained liquids were measured for their yield and total PEC number therein.

[3] = 30 mg/kg i.p. 5 minutes prior to induction, 3 and 6 hours post-induction
[4] = 30 mg/kg s.c. 6 hours and 5 minutes prior to induction, 24 hours after induction

Q: For `CNC(=O)[C@H](Cc1ccc(NC(=N)N)cc1)NC(=O)[C@H](CC(C)C)C(CCCc1ccccc1)C(=O)NO` (single isomer, unassigned) [Compound No. 130, N-[4-(N-Hydroxyamino)-2(R)-isobutyl-3(R or S)-(3-phenyltrimethylene)succinyl)-L-4'-guanidophenylalanine-N-methylamide 1 acetate], which “Body Weight Gain, Observation Day 5” value (Body weight gain in mice; non-administered 0.50± 0.23) is on record?
A: 0.57± 0.61

Q: What about the “Body Weight Gain, Observation Day 7” value (Body weight gain in mice; non-administered 0.80± 0.48) of the same molecule?
A: 0.77± 0.55

Q: And the “Body Weight Gain, Observation Day 10” value (Body weight gain in mice; non-administered 1.07± 0.58)?
A: 1.20± 0.26

Q: And the “gain in body weight (FIG. 10)” value [1]?
A: almost equivalent to that in the solvent control group

Q: What about the “infiltration of leukocytes into an air pouch (FIG. 14)” value [2] of the same molecule?
A: significantly inhibited

Q: And the “inhibition of infiltration of eosinophils into the peritoneal cavity” value (allergic peritonitis; [3])?
A: 56.3%

Q: And the “inhibition of infiltration of lymphocytes/macrophages into the peritoneal cavity” value (allergic peritonitis; [3])?
A: 74.9%

Q: And the “reduction of total PEC numbers” value (allergic peritonitis; [3])?
A: 70.7%

Q: And the “inhibition of infiltration of eosinophils into the peritoneal cavity” value (allergic peritonitis; [4])?
A: 38.6%

Q: What about the “inhibition of infiltration of lymphocytes/macrophages into the peritoneal cavity” value (allergic peritonitis; [4]) of the same molecule?
A: 91.2%

Q: What about the “reduction of total PEC numbers” value (allergic peritonitis; [4]) of the same molecule?
A: 68.5%
